Laboratory results: patent US20180071317A1, “USE OF AGENTS THAT ALTER THE PERITUMORAL ENVIRONMENT FOR THE TREATMENT OF CANCER” (SERVICIO ANDALUZ DE SALUD, priority 2011, published 2018)

Experiments:
[1] = test system: fibroblasts (PHF) co-cultured with tumor cells of human colon adenocarcinoma (SW-403); experiment: Marker expression (IHC) in PHF co-cultured with SW-403 tumor cells; assay type: cell-based; settings: co-culture with SW-403; SP 1 μM + antagonist 1 μM; 48 h
Procedure: (§1) All cultures were maintained 48 hours, following which the same cells were included in paraffin blocks for subsequent analysis of the expression of different markers by immunohistochemistry (see Example 1). The primary antibodies used to perform immunohistochemical assays and their concentration are detailed in Example 2. All experiments were carried out sixfold. Analyzed markers in fibroblast cells (stromal cells) were: TGF-α, TGF-β1, TGF-β2, TGF-β3, SPARC, MMP-3, MMP-7, MMP-9, MMP-11, MMP-13 and MMP-14.

[2] = test system: fibroblasts of tumors produced by lung carcinoma non small cell human (HCC-44) cells; experiment: Marker expression (IHC) in fibroblasts of tumor or peritumoral area, mouse model, HCC-44; assay type: in vivo; settings: HCC-44 tumors in mice, 30 mg/kg/day oral, 7 days
Procedure: The expression on fibroblast cells obtained in the animal model was analyzed by immunohistochemistry, of the above markers: TGF-α, TGF-β1, TGF-β2, TGF-β3, MMP-7, MMP-1 1, MMP-14MP-14. […] This process was realized in mice treated with non-peptide antagonists of NK1 receptor and in untreated animals (control).

[3] = test system: fibroblasts (PHF) co-cultured with human fibrosarcoma tumor cells (HT-1080); experiment: Marker expression (IHC) in PHF co-cultured with HT-1080 tumor cells; assay type: cell-based; settings: co-culture with HT-1080; SP 1 μM + antagonist 1 μM; 48 h;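 further: cultures grown in fresh human plasma from a healthy donor, six replicates, value is percent of fibroblasts positive for the marker, compared with fibroblasts cultured without tumor cells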
Procedure: (§2) All cultures were maintained 48 hours, following which the same cells were included in paraffin blocks for subsequent analysis of the expression of different markers by immunohistochemistry (see Example 1). […] All experiments were carried out sixfold. Analyzed markers in fibroblast cells (stromal cells) were: TGF-α, TGF-β1, TGF-β2, TGF-β3, SPARC, MMP-3, MMP-7, MMP-9, MMP-11, MMP-13 and MMP-14.

[4] = test system: macrophages in co-culture with cells isolated from primary human tumors; experiment: Marker expression (IHC) in macrophages co-cultured with primary human tumor cells (colon, breast, ovarian, lung carcinoma, melanoma); assay type: cell-based; settings: SP 1 μM + antagonist 1 μM;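 further: macrophages came from pleural or peritoneal washings of the patient who also supplied the tumor cells, and both were co-cultured on fresh blood plasma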
Procedure: To check that the interaction of tumor cells obtained directly from primary human immune cell/inflammatory (macrophages) cells, obtained from the patient stimulate secretion of substances by these macrophages recognized as important in survival of both cell types and in the progression of tumor cells, co-cultures were performed on fresh blood plasma, immune cell/inflammatory (macrophages) with tumor cells derived from primary tumors. All obtained from the same patient, to build an experimental model similar to human physiology.
Macrophages were obtained from washing or pleural or peritoneal from the same patient from which the primary tumor cells were obtained in each case.

[5] = test system: fibroblasts (PHF) co-cultured with tumor cells of human breast carcinoma (MCF-7); experiment: Marker expression (IHC) in PHF co-cultured with MCF-7 tumor cells; assay type: cell-based; settings: co-culture with MCF-7; SP 1 μM + antagonist 1 μM; 48 h;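 further: value is the percentage of fibroblasts positive for each marker, with fibroblasts cultured alone as reference, grown in fresh plasma from a healthy donor, six replicates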
Procedure: as §2

[6] = test system: fibroblasts (PHF) co-cultured with tumor cells of human Edwing sarcoma (MHH-ES-1); experiment: Marker expression (IHC) in PHF co-cultured with MHH-ES-1 tumor cells; assay type: cell-based; settings: PHF co-cultured with MHH-ES-1 + SP + NK1 antagonist
Procedure: as §2

[7] = test system: human primary macrophages (PHM); experiment: Marker expression (immunohistochemistry) in human primary macrophages with SP alone or with NK1 antagonists; assay type: cell-based; settings: SP 1 μM + antagonist 1 μM; 48 h
Procedure: In this sense the next step was to analyze the effect exerted by the treatment with non-peptide NK1 antagonists in human primary macrophages (PHM) obtained and purified from pleural effusion samples obtained from men with chronic age range between 45 and 55 years. Briefly, the pleural fluid from chronic (rich in macrophages) was centrifuged.
After 48 hours of culture, cells were harvested and cellular paraffin blocks were constructed for immunohistochemical analysis (see Example 1). To analyze the expression of markers EGF, MMP-9, VEGF and IL-8 antibodies were used as follows: EGF (rabbit monoclonal antibody, anti-EGF; 07-1432. Merck-Millipore), MMP-9 (polyclonal rabbit anti-MMP-9: SAB4501896, Sigma-Aldrich), VEGF (mouse monoclonal anti-VEGF, GF25-100UG, Merck-Millipore) and TNF-α (mouse monoclonal anti-TNF-α, number MAB 1021 catalogue, obtained from Merck-Millipore). All of these antibodies were used at a concentration of 1/1000. System for labelling with a secondary antibody specific for the primary antibodies obtained from rabbit or mouse was used, as was necessary in each case, both the Envision (Dako). All experiments were carried out sixfold.

[8] = test system: fibroblasts of tumors produced by human glioma tumor line (GAMG); experiment: Marker expression (IHC) in fibroblasts of tumor or peritumoral area, mouse model, GAMG; assay type: in vivo; settings: GAMG tumors in mice, 30 mg/kg/day oral, 7 days
Procedure: In vitro tests conducted in Example 5 are now carried out in an experimental model in mice in vivo. […] Subsequently, the expression in fibroblasts tumoral and peritumoral area of molecular markers associated with progression and maintenance of tumors: TGF-α, TGF-β1, TGF-β2, TGF-β3, MMP-7, MMP-11, MMP-14 were analyzed by immunohistochemistry.
Were injected with 2×10^7 cells tumors (corresponding, in each case to each of the tumor types as specified in Table 9) in 200 of PBS subcutaneously μl. […] Mice were randomized into two groups when the tumors reached a volume of 75 mm^3 One group was treated with non-peptide receptor antagonists NK1 and the other with placebo 200μ1. […] Tumors and samples of non-neoplastic stromal areas remote from the tumor were halved, formalin fixed (4%) and then were included in paraffin blocks for analysis by immunohistochemistry.
The expression on fibroblast cells obtained in the animal model was analyzed by immunohistochemistry, of the above markers: TGF-α, TGF-β1, TGF-β2, TGF-β3, MMP-7, MMP-1 1, MMP-14MP-14. Tables 32 to 35 depict the type of label used and the average percentage of fibroblasts present in non-tumor areas, tumor and peritumoral (±SD) which were expressing the marker shown in each of the tumor types developed from of the different cell lines used. This process was realized in mice treated with non-peptide antagonists of NK1 receptor and in untreated animals (control).

[9] = test system: fibroblasts (PHF) co-cultured with tumor cells of human Burkitt lymphoma (CA-46); experiment: Marker expression (IHC) in PHF co-cultured with CA-46 tumor cells; assay type: cell-based; settings: PHF co-cultured with CA-46 + SP + NK1 antagonist;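 further: percentage of PHF fibroblasts positive for each marker, cultures grown in fresh human plasma from a healthy donor, six replicates, compared with fibroblasts cultured alone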
Procedure: as §1

[10] = test system: fibroblasts (PHF) co-cultured with tumor cells of human cervix carcinoma (KB); experiment: Marker expression (IHC) in PHF co-cultured with KB tumor cells; assay type: cell-based; settings: co-culture with KB; SP 1 μM + antagonist 1 μM; 48 h;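 further: percentage of PHF fibroblasts showing expression of each marker, cultured in fresh blood plasma from a healthy human donor, six replicates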
Procedure: as §2

[11] = co-culture with cells isolated from breast carcinoma
[12] = co-culture with cells isolated from colon carcinoma
[13] = co-culture with cells isolated from lung carcinoma
[14] = co-culture with cells isolated from melanoma
[15] = co-culture with cells isolated from ovarian carcinoma

C[C@@H](O[C@H]1OCCN(Cc2n[nH]c(=O)[nH]2)[C@H]1c1ccc(F)cc1)c1cc(C(F)(F)F)cc(C(F)(F)F)c1 [Aprepitant]
0%: PHF cells expressing MMP-3 [1] | PHF cells expressing MMP-7 [1] | PHF cells expressing MMP-9 [1] | PHF cells expressing MMP-11 [1] | PHF cells expressing MMP-13 [1] | PHF cells expressing MMP-14 [1] | PHF cells expressing SPARC [1] | PHF cells expressing TGF-α [1] | PHF cells expressing TGF-β1 [1] | PHF cells expressing TGF-β2 [1] | PHF cells expressing TGF-β3 [1] | fibroblasts expressing MMP-7 [2] | fibroblasts expressing MMP-11 [2] | fibroblasts expressing MMP-14 [2] | fibroblasts expressing TGF-α [2] | fibroblasts expressing TGF-β 1 [2] | fibroblasts expressing TGF-β 2 [2] | fibroblasts expressing TGF-β 3 [2] | PHF cells expressing MMP-3 [3] | PHF cells expressing MMP-7 [3] | PHF cells expressing MMP-9 [3] | PHF cells expressing MMP-11 [3] | PHF cells expressing MMP-13 [3] | PHF cells expressing MMP-14 [3] | PHF cells expressing SPARC [3] | PHF cells expressing TGF-α [3] | PHF cells expressing TGF-β1 [3] | PHF cells expressing TGF-β2 [3] | PHF cells expressing TGF-β3 [3] | Percentage of macrophages which expressed EGF [4, 11] | Percentage of macrophages which expressed MMP-9 [4, 11] | Percentage of macrophages which expressed VEGF [4, 11] | Percentage of macrophages which expressed EGF [4, 12] | Percentage of macrophages which expressed MMP-9 [4, 12] | Percentage of macrophages which expressed VEGF [4, 12] | Percentage of macrophages which expressed EGF [4, 13] | Percentage of macrophages which expressed MMP-9 [4, 13] | Percentage of macrophages which expressed VEGF [4, 13] | Percentage of macrophages which expressed EGF [4, 14] | Percentage of macrophages which expressed MMP-9 [4, 14] | Percentage of macrophages which expressed VEGF [4, 14] | Percentage of macrophages which expressed EGF [4, 15] | Percentage of macrophages which expressed MMP-9 [4, 15] | Percentage of macrophages which expressed VEGF [4, 15] | PHF cells expressing MMP-3 [5] | PHF cells expressing MMP-7 [5] | PHF cells expressing MMP-9 [5] | PHF cells expressing MMP-11 [5] | PHF cells expressing MMP-13 [5] | PHF cells expressing MMP-14 [5] | PHF cells expressing SPARC [5] | PHF cells expressing TGF-α [5] | PHF cells expressing TGF-β1 [5] | PHF cells expressing TGF-β2 [5] | PHF cells expressing TGF-β3 [5] | cells expressing MMP-3 [6] | cells expressing MMP-7 [6] | cells expressing MMP-9 [6] | cells expressing MMP-11 [6] | cells expressing MMP-13 [6] | cells expressing MMP-14 [6] | cells expressing SPARC [6] | cells expressing TGF-α [6] | cells expressing TGF-β1 [6] | cells expressing TGF-β2 [6] | cells expressing TGF-β3 [6] | macrophages expressing EGF [7] | macrophages expressing MMP-9 [7] | macrophages expressing VEGF [7] | fibroblasts expressing MMP-7 [8] | fibroblasts expressing MMP-11 [8] | fibroblasts expressing MMP-14 [8] | fibroblasts expressing TGF-α [8] | fibroblasts expressing TGF-β 1 [8] | fibroblasts expressing TGF-β 2 [8] | fibroblasts expressing TGF-β 3 [8] | cells expressing MMP-3 [9] | cells expressing MMP-7 [9] | cells expressing MMP-9 [9] | cells expressing MMP-11 [9] | cells expressing MMP-13 [9] | cells expressing MMP-14 [9] | cells expressing SPARC [9] | cells expressing TGF-α [9] | cells expressing TGF-β1 [9] | cells expressing TGF-β2 [9] | cells expressing TGF-β3 [9] | PHF cells expressing MMP-3 [10] | PHF cells expressing MMP-7 [10] | PHF cells expressing MMP-9 [10] | PHF cells expressing MMP-11 [10] | PHF cells expressing MMP-13 [10] | PHF cells expressing MMP-14 [10] | PHF cells expressing SPARC [10] | PHF cells expressing TGF-α [10] | PHF cells expressing TGF-β1 [10] | PHF cells expressing TGF-β2 [10] | PHF cells expressing TGF-β3 [10]
